From patent EP4585606A1, “OL[…] USE AND COMPOSITION THEREOF” (Buddhist Tzu Chi Medical Foundation, priority 2022, dated 2024) come the findings set out here.

Each structure is given as a SMILES string.

This test has as its system human osteoblastic cells hFOB1.19. Briefly: alkaline phosphatase (ALP) activity, TRACP & ALP detection kit. Format: cell-based. The note with it: hFOB1.19 not treated with the oligopeptides, CaCl2 0.01, 0.06, 0.2, 0.9 and 3.6 µM, 2 days. How it is done:
The activity of alkaline phosphatase was measured by a TRACP & ALP detection kit. hFOB1.19 cells were cultured at 2×10^4 cells/well in a 96-well plate for 2 days. After removing the supernatant of the culture, the cells were resuspended in physiological saline. To each well 50 µl of the extract solution was added, and incubated at room temperature for 5 minutes. Then, 50 µl of the matrix solution was added to each well and reacted at 37°C for 60 minutes. Finally, 50 µl of 0.5N NaOH was added to each well to terminate the reaction. After formation of color, the solution was measured for the absorbance at 405 nm.
Alkaline phosphatase is present in bone at a high level, and frequently considered as the indicator for differentiation of osteoblastic cells and growth of bone. In Example 6, human osteoblastic cells hFOB1.19 was not treated with the oligopeptide at the condition of different concentrations of CaCl2, and was treated with the four oligopeptides (0.45 µM) described above at the condition of 3.6 µM CaCl2 for 2 days, to detect the ALP activities in human osteoblastic cells hFOB1.19. […] (In FIGs. 6A and 6B, three separate experiments were performed for each group, and the data were expressed by mean ± SD. Statistical significance: by one-tailed test, *P < 0.05, in respect to the Control groups (A-D).

Regarding `[Ca+2].[Cl-].[Cl-]` [CaCl2], the ALP activities result was “no significant change”.
